Laboratory results published in article PMC5944028, “Nonclinical and clinical pharmacological characterization of the potent and selective cathepsin K inhibitor MIV-711” (Journal of Translational Medicine, 2018).
Where two headings read alike, the source gives them in different places.

Columns and labels:
human cathepsin K = biological target: T1, human cathepsin K (Homo sapiens, UniProt P43235); assay: Recombinant enzyme assay, human cathepsin K; type: biochemical
T1 construct: made in house; host or cells: E. coli
T1 sequence (P43235 115-329): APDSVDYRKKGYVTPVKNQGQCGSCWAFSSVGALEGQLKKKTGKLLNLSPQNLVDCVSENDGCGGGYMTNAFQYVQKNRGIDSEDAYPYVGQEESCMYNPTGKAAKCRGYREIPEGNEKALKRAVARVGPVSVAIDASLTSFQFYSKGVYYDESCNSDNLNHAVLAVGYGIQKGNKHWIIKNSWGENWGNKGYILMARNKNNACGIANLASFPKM
Description: Recombinant cathepsin K enzymes from all species were expressed in E. coli, purified and activated. Human cathepsin F and cathepsin S were expressed in Baculovirus, purified and activated. Purified human cathepsins B and H (Athens Research Technology), cathepsin L (Calbiochem), and cathepsin V (R & D Systems) were purchased.
H-D-Ala_Leu-Lys-AMC was used as the substrate in assays of cathepsin K from non-rodent species (human, dog, rabbit and guinea pig), and Z-Leu-Arg-AMC was used as the substrate in assays of cathepsin K from rodent species (mouse and rat). […]
Assays were carried out in white polystyrene 96-well plates in a final volume of 100 µL. […] Plates were read in a Fluoroskan Ascent (Thermo Labsystems, Helsinki, Finland) in kinetic mode, with excitation and emission filters of 390 and 460 nm, respectively. Rates were determined by linear regression of the fluorescence/time data in Excel. Rates were fitted by non-linear regression to either the competitive inhibition equation, with the substrate concentration fixed at the value in the assay and the KM fixed to the value previously determined, or the IC50 equation using GraphPad Prism (GraphPad, version 6, San Diego, USA) to obtain Ki or IC50 values, respectively.

serum CTX-I = assay: Human serum CTX-I, single ascending dose study; type: in vivo, human healthy subjects
Description: Twenty-seven healthy male and female subjects (18 male and 9 female) of any ethnic origin (24 White, 1 Asian, 1 Black, 1 Black/Caribbean White), aged between 19 and 64 years, and with a body mass index (BMI) between 18.0 and 32.0 kg/m^2, were selected for this study. Inclusion criteria for enrollment followed the standard practice for first-in-man studies.
This was a randomized, double-blind, placebo-controlled, sequential, single-ascending dose study conducted at a single site with the objective of evaluating the safety, tolerability, pharmacokinetics (PK) and pharmacodynamics of MIV-711. Subjects were randomized into 3 groups using a computer-generated pseudo-random permutation procedure. Each group consisted of 9 subjects with at least 3 subjects of each gender per group and subjects participated in 1–2 treatment periods. There was a minimum of 10 days between dose escalations and a minimum of 20 days between dosing occasions for individual subjects. For each subsequent dosing occasion, the decision to escalate the dose to the next level was taken after a thorough review of the safety, tolerability and PK data. In each treatment period, 7 subjects received MIV-711 and 2 received placebo (comprising of 1 subject of each gender). Dosing occurred on the morning of Day 1 following an overnight fast and subjects were kept in the fasted state until approximately 4.5 h after dosing. MIV-711 was given as a combination of 10 or 40 mg hard gelatin capsules, while placebo was given in similar capsules of identical appearance.
Blood samples were collected at pre-dose, 4, 8, 24 and 48 h post-dose and processed into serum for the measurement of CTX-I concentrations.
The quantification of CTX-I in monkey plasma samples and human serum samples was performed using a commercially available kit (Serum CrossLaps ELISA, IDS Nordic, Herlev, Denmark). The levels of CTX-I in monkey urine samples were measured using a commercially available kit (Urine BETA CrossLaps ELISA, IDS Nordic). The quantification of NTX-I in monkey samples was performed using a commercially available kit (Osteomark NTx Urine, Wampole Laboratories, Inc, Princeton, USA). Urinary levels of CTX-II in monkey samples were measured using a commercially available kit (Urine CrossLaps EIA, IDS Nordic). The concentrations of biomarkers in the urine samples were corrected for creatinine concentrations. The creatinine levels in urine were determined at Swedish University of Agricultural Sciences, using the enzymatic assay (cat no. 8L24-01) on the Abbott system Architect c4000.

[1] = test system: differentiated human osteoclasts; assay: Osteoclast-mediated bone resorption, human bone fragments (CTX-I release); type: cell-based
Description: The effect of MIV-711 on osteoclast-mediated bone resorption was evaluated using a complete kit from Cambrex Bio Science (Walkersville, MD, USA). Briefly, primary osteoclasts were generated from osteoclast precursors by incubation with RANK ligand and M-CSF in 96-well plates coated with human bone fragments, according to the instructions from the provider. After differentiation (minimum of 5 days), osteoclasts were exposed to different fixed concentrations of MIV-711 for 24 h. The resorption activity of the cultures was determined by quantifying CTX-I in the culture supernatants using a commercially available enzyme-linked immunosorbent assay (CrossLaps®, Nordic Bioscience Diagnostics A/S, Herlev, Denmark). Controls exposed to medium without inhibitor were set to 100%. CTX-I levels from MIV-711-treated cells were normalized and expressed as % of control. Curves were generated plotting the concentration of MIV-711 versus % of control. The curves were fitted to the Hill (four parameter) equation to generate an IC50 value using GraphPad Prism software. The IC50 value was defined as the concentration of MIV-711 that reduced CTX-I levels to 50% of control.

urinary CTX-II = conditions: cited from earlier work

## C#C[C@@H]1CN(C(=O)[C@H](CC(C)C)NC(=O)c2ccc(-c3nc(N4CCN(C)CC4)sc3F)cc2)[C@@H]2C(=O)CO[C@H]12 [MIV-711]
Human cathepsin K; cathepsin K vs cathepsins B, L, F, V, H, S
  Selectivity versus the other human cathepsins tested: more than 1300 fold
Human cathepsin K; human recombinant cathepsin K, geometric mean
  Ki: 0.98 nM
Serum CTX-I; 20 mg single dose
  Inhibition of serum CTX-I versus baseline at 24 h: 20%
Serum CTX-I; 100 mg single dose
  Reduction of CTX-I at 24 h post-dose: 54%
Serum CTX-I; 600 mg single dose
  Inhibition of serum CTX-I versus baseline at 24 h: 79%
Serum CTX-I; AUC0–24h
  Exposure required for 50% reduction of CTX-I at 24 h post dose: 1.3 µmol/L/h
[1]
  Concentration needed for effect on bone resorption in vitro relative to Ki: around 50 fold
[1]; human bone fragments, 24 h, CTX-I, geometric mean
  IC50: 43 nM
Urinary CTX-II; healthy subjects, 200 mg daily for 7 days
  Reduction of urinary CTX-II: 72%
Urinary CTX-II; postmenopausal women, 100 mg once daily for 1 month
  Reduction of urinary CTX-II: 55%
